Assay results reported in patent EP2931723B1, “NEW BICYCLIC COMPOUNDS AND THEIR USE AS ANTIBACTERIAL AGENTS AND -LACTAMASE INHIBITORS” (Fedora Pharmaceuticals Inc., priority 2012, dated 2014).

Legend:
E. coli ATCC 25922 = assay: MIC, antibacterial and synergistic activity; format: cell-based; details: E. coli ATCC 25922 (Wt); for MIC Aztreonam + inhibitor: Aztreonam + inhibitor at 4 µg/mL; for MIC Ceftazidime + inhibitor: Ceftazidime + inhibitor at 4 µg/mL; for MIC Meropenem + inhibitor: Meropenem + inhibitor at 4 µg/mL; for MIC: Escherichia coli, ATCC25922, substance alone
A. baumanii JMI 2659 = assay: MIC, antibacterial and synergistic activity; format: cell-based; details: A. baumanii JMI 2659 (Ges-14 (Cpase)); for MIC Aztreonam + inhibitor: Aztreonam + inhibitor at 4 µg/mL; for MIC Ceftazidime + inhibitor: Ceftazidime + inhibitor at 4 µg/mL; for MIC Meropenem + inhibitor: Meropenem + inhibitor at 4 µg/mL; for MIC: Acinetobacter baumannii, JMI2659, substance alone, read-out: MIC
E.coli JMI 4103 = assay: MIC, antibacterial and synergistic activity; format: cell-based; details: E.coli JMI 4103 (KPC-2, Tem-1, CMY-Type); for MIC Aztreonam + inhibitor: Aztreonam + inhibitor at 4 µg/mL; for MIC Ceftazidime + inhibitor: Ceftazidime + inhibitor at 4 µg/mL; for MIC Meropenem + inhibitor: Meropenem + inhibitor at 4 µg/mL; for MIC: Escherichia coli, JMI4103, substance alone
E. coli JMI 4080 = assay: MIC, antibacterial and synergistic activity; format: cell-based; details: for MIC Aztreonam + inhibitor / MIC Ceftazidime + inhibitor / MIC Meropenem + inhibitor: E. coli JMI 4080 (Tem-10); for MIC Aztreonam + inhibitor: Aztreonam + inhibitor at 4 µg/mL; for MIC Ceftazidime + inhibitor: Ceftazidime + inhibitor at 4 µg/mL; for MIC Meropenem + inhibitor: Meropenem + inhibitor at 4 µg/mL; for MIC: Escherichia coli, JMI4080, E. coli JMI 4080 (Tem-10), substance alone
E. coli JMI 2692 = assay: MIC, antibacterial and synergistic activity; format: cell-based; details: E. coli JMI 2692 (NDM-1, TEM-1, CTX-M-15); for MIC Aztreonam + inhibitor: Aztreonam + inhibitor at 4 µg/mL; for MIC Ceftazidime + inhibitor: Ceftazidime + inhibitor at 4 µg/mL; for MIC Meropenem + inhibitor: Meropenem + inhibitor at 4 µg/mL; for MIC: Escherichia coli, JMI2692, substance alone, read-out: MIC
Description: (§1) In the Tables 10 - 12, compounds herein disclosed were tested in combination with various antibiotics against metallo β-lactamase producing bacteria.

K. pneumo JMI 2693 = assay: MIC, antibacterial and synergistic activity; format: cell-based; details: K. pneumo JMI 2693 (NDM-1 (Cpase)); for MIC Aztreonam + inhibitor: Aztreonam + inhibitor at 4 µg/mL; for MIC Ceftazidime + inhibitor: Ceftazidime + inhibitor at 4 µg/mL; for MIC Meropenem + inhibitor: Meropenem + inhibitor at 4 µg/mL; for MIC: substance alone
Description: as §1

P. aerug JMI 149 = assay: MIC, antibacterial and synergistic activity; format: cell-based; details: P. aerug JMI 149 (Bla+++D+); for MIC Aztreonam + inhibitor: Aztreonam + inhibitor at 4 µg/mL; for MIC Ceftazidime + inhibitor: Ceftazidime + inhibitor at 4 µg/mL; for MIC Meropenem + inhibitor: Meropenem + inhibitor at 4 µg/mL; for MIC: substance alone, read-out: MIC
E. cloacae JMI 36 = assay: MIC, antibacterial and synergistic activity; format: cell-based; details: E. cloacae JMI 36 (P99); for MIC Aztreonam + inhibitor: Aztreonam + inhibitor at 4 µg/mL; for MIC Ceftazidime + inhibitor: Ceftazidime + inhibitor at 4 µg/mL; for MIC Meropenem + inhibitor: Meropenem + inhibitor at 4 µg/mL; for MIC: Enterobacter cloacae, JMI36, substance alone, read-out: MIC
[1] = system: metallo β-lactamase producing bacteria; assay: MIC in combination with various antibiotics against metallo β-lactamase producing bacteria (Tables 10-12); format: cell-based; details: Enterobacter cloacae, agent alone
Description: as §1

CMY-2 = CMY-2 (Klebsiella pneumoniae, UniProt Q48434); assay: β-lactamase inhibitory activity, spectrophotometric nitrocefin assay; format: biochemical; details: nitrocefin as substrate
Description: (§2) The inhibitory activities of compounds herein disclosed against various enzymes were measured by spectrophotometric assay using […] and using nitrocefin as a substrate [J. Antimicrob. Chemother., 28, pp 775-776 (1991)] . The concentration of inhibitor (IC50) which inhibits by 50% the reaction of hydrolysis of nitrocefin by the enzyme is determined. […] Table 13 Test for β-lactamase Inhibitory Activity

CTX-M-9 = CTX-M-9 (Escherichia coli, UniProt Q9L5C8); assay: as above; format: biochemical; details: nitrocefin as substrate
Description: as §2

KPC-2 = KPC-2 (Klebsiella pneumoniae, UniProt Q9F663); assay: as above; format: biochemical; details: nitrocefin as substrate
Description: as §2

TEM-1 = TEM-1 (Escherichia coli, UniProt P62593); assay: as above; format: biochemical; details: nitrocefin as substrate
Description: as §2

KPC-2, sequence (Q9F663 25-293, looked up, species assumed): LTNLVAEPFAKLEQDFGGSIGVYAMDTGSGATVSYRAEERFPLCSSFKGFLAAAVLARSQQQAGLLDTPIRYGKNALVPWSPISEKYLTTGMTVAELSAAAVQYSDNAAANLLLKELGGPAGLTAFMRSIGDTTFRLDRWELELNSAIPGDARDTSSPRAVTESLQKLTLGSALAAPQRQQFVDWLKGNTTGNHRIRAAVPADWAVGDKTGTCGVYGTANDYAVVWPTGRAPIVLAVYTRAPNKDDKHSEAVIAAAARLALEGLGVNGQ
CTX-M-9, sequence (Q9L5C8 29-291): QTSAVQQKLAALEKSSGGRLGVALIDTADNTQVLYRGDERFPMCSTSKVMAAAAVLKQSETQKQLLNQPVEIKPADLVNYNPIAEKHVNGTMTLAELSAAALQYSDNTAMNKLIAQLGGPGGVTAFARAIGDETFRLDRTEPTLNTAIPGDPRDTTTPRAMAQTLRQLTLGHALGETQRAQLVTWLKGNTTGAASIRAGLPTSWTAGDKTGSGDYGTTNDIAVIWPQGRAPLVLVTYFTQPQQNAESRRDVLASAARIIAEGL
TEM-1, sequence (P62593 24-286 limits assumed): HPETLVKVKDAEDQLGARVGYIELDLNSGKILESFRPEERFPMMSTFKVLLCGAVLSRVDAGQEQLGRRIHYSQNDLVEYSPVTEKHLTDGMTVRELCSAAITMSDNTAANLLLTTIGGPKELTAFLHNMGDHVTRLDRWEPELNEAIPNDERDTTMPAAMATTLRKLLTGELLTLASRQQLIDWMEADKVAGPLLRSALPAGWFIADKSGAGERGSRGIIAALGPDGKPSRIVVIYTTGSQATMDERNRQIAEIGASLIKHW
CMY-2, sequence (Q48434 21-381, species assumed): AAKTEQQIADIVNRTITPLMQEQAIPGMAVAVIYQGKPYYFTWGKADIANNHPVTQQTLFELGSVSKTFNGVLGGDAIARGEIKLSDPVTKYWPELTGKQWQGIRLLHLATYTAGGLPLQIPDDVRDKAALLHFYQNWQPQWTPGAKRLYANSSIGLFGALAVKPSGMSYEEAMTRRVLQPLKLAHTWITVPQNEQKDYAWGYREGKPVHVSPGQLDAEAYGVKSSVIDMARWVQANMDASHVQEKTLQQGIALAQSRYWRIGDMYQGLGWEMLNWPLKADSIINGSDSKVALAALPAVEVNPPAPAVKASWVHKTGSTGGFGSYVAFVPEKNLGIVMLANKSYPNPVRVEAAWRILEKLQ

| Compound | MIC Aztreonam + inhibitor (E. coli ATCC 25922) | MIC Ceftazidime + inhibitor (E. coli ATCC 25922) [µg/mL] | MIC Meropenem + inhibitor (E. coli ATCC 25922) | MIC (E. coli ATCC 25922) [µg/mL] | MIC Aztreonam + inhibitor (A. baumanii JMI 2659) [µg/mL] | MIC Ceftazidime + inhibitor (A. baumanii JMI 2659) [µg/mL] | MIC Meropenem + inhibitor (A. baumanii JMI 2659) [µg/mL] | MIC (A. baumanii JMI 2659) [µg/mL] | MIC Aztreonam + inhibitor (E.coli JMI 4103) [µg/mL] | MIC Ceftazidime + inhibitor (E.coli JMI 4103) [µg/mL] | MIC Meropenem + inhibitor (E.coli JMI 4103) | MIC (E.coli JMI 4103) [µg/mL] | MIC Aztreonam + inhibitor (E. coli JMI 4080) | MIC Ceftazidime + inhibitor (E. coli JMI 4080) [µg/mL] | MIC Meropenem + inhibitor (E. coli JMI 4080) | MIC (E. coli JMI 4080) [µg/mL] | MIC Aztreonam + inhibitor (E. coli JMI 2692) | MIC Ceftazidime + inhibitor (E. coli JMI 2692) [µg/mL] | MIC Meropenem + inhibitor (E. coli JMI 2692) | MIC (E. coli JMI 2692) [µg/mL] | further results |
| --- | --- | --- | --- | --- | --- | --- | --- | --- | --- | --- | --- | --- | --- | --- | --- | --- | --- | --- | --- | --- | --- |
| CC(=O)NNC(=O)[C@@H]1CC[C@@H]2CN1C(=O)N2OS(=O)(=O)O [Ex. 5, (2S,5R)-N'-acetyl-7-oxo-6-(sulfooxy)-1,6-diazabicyclo[3.2.1]octane-2-carbohydrazide] | ≤0.062 µg/mL | ≤0.25 | ≤0.031 µg/mL | 2 | >4 | >16 | >2 | > 16 | ≤0.062 | ≤0.25 | ≤0.031 µg/mL | 8 | ≤0.062 µg/mL | ≤0.25 | ≤0.031 µg/mL | 2 | ≤0.062 µg/mL | ≤0.25 | ≤0.031 µg/mL | 2 | MIC Aztreonam + inhibitor (K. pneumo JMI 2693): 0.5 µg/mL; MIC Ceftazidime + inhibitor (K. pneumo JMI 2693): 0.5 µg/mL; MIC Meropenem + inhibitor (K. pneumo JMI 2693): 0.125 µg/mL; MIC (K. pneumo JMI 2693): > 16 µg/mL; MIC Aztreonam + inhibitor (P. aerug JMI 149): >4 µg/mL; MIC Ceftazidime + inhibitor (P. aerug JMI 149): >16 µg/mL; MIC Meropenem + inhibitor (P. aerug JMI 149): 0.5 µg/mL; MIC (P. aerug JMI 149): > 16 µg/mL; MIC Aztreonam + inhibitor (E. cloacae JMI 36): >4 µg/mL; MIC Ceftazidime + inhibitor (E. cloacae JMI 36): 16 µg/mL; MIC Meropenem + inhibitor (E. cloacae JMI 36): 0.125 µg/mL; MIC (E. cloacae JMI 36): > 16 µg/mL; MIC ([1]; Isolate No 4, Enzyme VIM-6): 64; MIC ([1]; Isolate No 10, Enzyme IMP-26): 64; IC50 (CMY-2): 0.008 ± 0.001 µM; IC50 (CTX-M-9): 0.327 ± 0.02 µM; IC50 (KPC-2): 0.091 ± 0.009 µM; IC50 (TEM-1): 0.052 ± 0.004 µM |
| O=C(NO[C@H]1CCCNC1)[C@@H]1CC[C@@H]2CN1C(=O)N2OS(=O)(=O)O [Ex. 2, (2S,5R)-7-Oxo-N-[(3S)-piperidin-3-yloxy] -6-(sulfooxy)-1,6-diazabicyclo[3.2.1]octane-2-carboxamide] | ≤.062 µg/mL | ≤0.25 | ≤.031 µg/mL | 1 | >4 | >16 | >2 | > 16 | >4 | 8 | ≤.031 µg/mL | 8 | ≤.062 µg/mL | ≤0.25 | ≤.031 µg/mL | 4 | ≤.062 µg/mL | ≤0.25 | ≤.031 µg/mL | ≤ 0.5 | MIC Aztreonam + inhibitor (K. pneumo JMI 2693): ≤.062 µg/mL; MIC Ceftazidime + inhibitor (K. pneumo JMI 2693): ≤0.25 µg/mL; MIC Meropenem + inhibitor (K. pneumo JMI 2693): ≤.031 µg/mL; MIC (K. pneumo JMI 2693): 4 µg/mL; MIC Aztreonam + inhibitor (P. aerug JMI 149): >4 µg/mL; MIC Ceftazidime + inhibitor (P. aerug JMI 149): 4 µg/mL; MIC Meropenem + inhibitor (P. aerug JMI 149): 0.5 µg/mL; MIC (P. aerug JMI 149): > 16 µg/mL; MIC Aztreonam + inhibitor (E. cloacae JMI 36): 0.125 µg/mL; MIC Ceftazidime + inhibitor (E. cloacae JMI 36): ≤0.25 µg/mL; MIC Meropenem + inhibitor (E. cloacae JMI 36): 0.125 µg/mL; MIC (E. cloacae JMI 36): > 16 µg/mL |
